Read-outs that look alike come from different tables or passages of the source.
Tests used:
[1] = tested on: human colon carcinoma cells HCT-116; assay: XTT in vitro cytotoxicity assay, HCT-116 human colon carcinoma cells; format: cell-based
Procedure: (§1) The HCT-116/VM46 cells are cells that have been previously selected for teniposide resistance and express the multi-drug resistance phenotype, including resistance to paclitaxel. Cytotoxicity was assessed in HCT-116 human colon carcinoma cells by XTT (2,3-bis(2-methoxy-4-nitro-5-sulfphenyl)-5-[(phenylamino)carbonyl]2H-tetrazolium hydroxide) assay as reported in D. A. Scudiero, et al., "Evaluation of soluble tetrazolium/formazan assay for cell growth and drug sensitivity in culture using human and other tumor cell lines," Cancer Res. 48:4827-4833, 1988. Cells were plated at 4000 cells/well in 96 well microtiter plates and 24 hours later drugs were added and serial diluted. The cells were incubated at 37° C. for 72 hours at which time the tetrazolium dye, XTT, was added. A dehydrogenase enzyme in live cells reduces the XTT to a form that absorbs light at 450 nm which can be quantitated spectrophotometrically. The greater the absorbance, the greater the number of live cells. The results are expressed as an IC50, which is the drug concentration required to inhibit cell proliferation (i.e., absorbance at 450 nm) to 50% of that of untreated control cells.

[2] = tested on: human colon carcinoma cells HCT-116/VM46; assay: XTT in vitro cytotoxicity assay, HCT-116/VM46 multi-drug resistant human colon carcinoma cells; format: cell-based
Procedure: as §1

[3] = HCT-116, 72 h, read-out: IC50 HCT116 (nM)
[4] = HCT-116/VM46, 72 h, read-out: IC50 HCT116/VM46 (nM)
[5] = HCT-116, XTT, 72 hours at 37° C., inhibition of cell proliferation to 50% of untreated control, read-out: IC50 HCT116
[6] = HCT-116/VM46, XTT, 72 hours at 37° C., teniposide-selected cells, multi-drug resistance phenotype incl. resistance to paclitaxel, read-out: IC50 HCT116/VM46

| Compound | IC50 [1, 3] | IC50 [2, 4] | IC50 [1, 5] | IC50 [2, 6] |
| --- | --- | --- | --- | --- |
| CC(=O)O[C@H]1C(=O)[C@]2(C)[C@@H]3O[C@@H]3[C@H]3OC[C@@]3(OC(C)=O)[C@H]2[C@H](OC(=O)c2ccccc2)[C@]2(O)C[C@H](OC(=O)[C@H](O)[C@@H](NC(=O)c3ccccc3)c3ccco3)C(C)=C1C2(C)C [Ic, 3'-Desphenyl-3'-(2-furyl)-6,7-α-epoxypaclitaxel] | 0.6 nM | 12.3 nM | – | – |
| CC(=O)O[C@H]1C(=O)[C@]2(C)[C@@H]3O[C@@H]3[C@H]3OC[C@@]3(OC(C)=O)[C@H]2[C@H](OC(=O)c2ccccc2)[C@]2(O)C[C@H](OC(=O)[C@H](O)[C@H](C=C(C)C)NC(=O)OC(C)(C)C)C(C)=C1C2(C)C [Id, 3'-N-Debenzoyl-N-t-butoxycarbonyl-3'-desphenyl-3'-isobutenyl-6,7-α-epoxypaclitaxel] | 1.3 nM | 3.3 nM | – | – |
| CC(=O)O[C@H]1C(=O)[C@]2(C)[C@@H]3O[C@@H]3[C@H]3OC[C@@]3(OC(C)=O)[C@H]2[C@H](OC(=O)c2ccccc2)[C@]2(O)C[C@H](OC(=O)[C@H](O)[C@@H](NC(=O)OC(C)(C)C)c3ccco3)C(C)=C1C2(C)C [Ib, 3'-N-Debenzoyl-N-t-butoxycarbonyl-3'-desphenyl-3'-(2-furyl)-6,7-α-epoxypaclitaxel] | – | – | 1.3 to 3 nM | 2.8 to 13.9 nM |
| CC(=O)O[C@H]1C(=O)[C@]2(C)[C@@H]3O[C@@H]3[C@H]3OC[C@@]3(OC(C)=O)[C@H]2[C@H](OC(=O)c2ccccc2)[C@]2(O)C[C@H](OC(=O)[C@H](O)[C@@H](NC(=O)c3ccccc3)c3ccccc3)C(C)=C1C2(C)C [Ia, 6,7-α-Epoxypaclitaxel] | 1.2 nM | 30.5 nM | – | – |
| CC(=O)O[C@H]1C(=O)[C@@]2(C)[C@H]([C@H](OC(=O)c3ccccc3)[C@]3(O)C[C@H](OC(=O)[C@H](O)[C@@H](NC(=O)c4ccccc4)c4ccccc4)C(C)=C1C3(C)C)[C@]1(OC(C)=O)CO[C@@H]1C[C@@H]2O [paclitaxel] | – | – | 1.3 to 3.5 nM | 244 to 403 nM |

From patent US5395850A, “6,7-epoxy paclitaxels” (Bristol-Myers Squibb Company, priority 1994, dated 1995)
